Assay results taken from paper PMC3626250, “Effects of Borneol on Pharmacokinetics and Tissue Distribution of Notoginsenoside R1 and Ginsenosides Rg1 and Re in Panax notoginseng in Rabbits” (Journal of Analytical Methods in Chemistry, 2013).

Experiment: Stability in plasma samples and tissue homogenates of rabbits
Format: physicochemical
Method: The precision of the assay was determined for the quality control (QC) plasma and tissue […] Intraday precision and accuracy were determined via repeated analysis of the QC plasma and tissue samples within one day (n = 5). Interday precision and accuracy were determined via repeated analysis on five consecutive days. The concentration of each sample was determined using the prepared calibration curve and analyzed on the same day. All stabilities were evaluated at different concentration levels. Short-term stability of NGR1, GRg1, and GRe were assessed by analyzing QC samples kept at 4°C for 4–24 h. Freeze-thaw stability was evaluated at three consecutive freeze-thaw cycles. Long-term stability was studied by analyzing samples during a period of 8 weeks of storage at −70°C.
The stability studies were performed by evaluating small variations in three different conditions.

In the case of `CC(C)=CCC[C@](C)(O[C@@H]1O[C@H](CO)[C@@H](O)[C@H](O)[C@H]1O)[C@H]1CC[C@]2(C)[C@@H]1[C@H](O)C[C@@H]1[C@@]3(C)CC[C@H](O)C(C)(C)[C@@H]3[C@@H](O[C@@H]3O[C@H](CO)[C@@H](O)[C@H](O)[C@H]3O[C@@H]3OC[C@@H](O)[C@H](O)[C@H]3O)C[C@]12C` [NGR1, notoginsenoside R1], the “Remaining, Short-term stability” value (brain homogenate, QC 0.5 μg·mL^−1, 4°C for 4–24 h) is reported as 92.3 ± 9.4%, the “Remaining, Long-term stability” value (brain homogenate, QC 0.5 μg·mL^−1, 8 weeks at −70°C) is reported as 101.8 ± 6.8% and the “Remaining, Freeze-thaw stability” value (brain homogenate, QC 0.5 μg·mL^−1, three freeze-thaw cycles) is reported as 92.8 ± 6.9%. The “Remaining, Short-term stability” value (brain homogenate, QC 5.0 μg·mL^−1, 4°C for 4–24 h) was 98.4 ± 4.4%, the “Remaining, Long-term stability” value (brain homogenate, QC 5.0 μg·mL^−1, 8 weeks at −70°C) was 90.0 ± 9.5% and the “Remaining, Freeze-thaw stability” value (brain homogenate, QC 5.0 μg·mL^−1, three freeze-thaw cycles) was 92.2 ± 8.5%. For the same compound, the “Remaining, Short-term stability” value (brain homogenate, QC 50.0 μg·mL^−1, 4°C for 4–24 h) was 103.5 ± 9.2%, the “Remaining, Long-term stability” value (brain homogenate, QC 50.0 μg·mL^−1, 8 weeks at −70°C) was 99.0 ± 5.3% and the “Remaining, Freeze-thaw stability” value (brain homogenate, QC 50.0 μg·mL^−1, three freeze-thaw cycles) was 95.2 ± 11.4%. For the same compound, the “Remaining, Short-term stability” value (heart homogenate, QC 0.5 μg·mL^−1, 4°C for 4–24 h) was 98.2 ± 6.7%, the “Remaining, Long-term stability” value (heart homogenate, QC 0.5 μg·mL^−1, 8 weeks at −70°C) was 103.6 ± 6.5% and the “Remaining, Freeze-thaw stability” value (heart homogenate, QC 0.5 μg·mL^−1, three freeze-thaw cycles) was 92.8 ± 6.8%. For the same compound, the “Remaining, Short-term stability” value (heart homogenate, QC 5.0 μg·mL^−1, 4°C for 4–24 h) was 94.8 ± 9.5%, the “Remaining, Long-term stability” value (heart homogenate, QC 5.0 μg·mL^−1, 8 weeks at −70°C) was 92.9 ± 4.2% and the “Remaining, Freeze-thaw stability” value (heart homogenate, QC 5.0 μg·mL^−1, three freeze-thaw cycles) was 102.5 ± 10.6%. For the same compound, the “Remaining, Short-term stability” value (heart homogenate, QC 50.0 μg·mL^−1, 4°C for 4–24 h) was 100.3 ± 7.5%, the “Remaining, Long-term stability” value (heart homogenate, QC 50.0 μg·mL^−1, 8 weeks at −70°C) was 96.6 ± 6.7% and the “Remaining, Freeze-thaw stability” value (heart homogenate, QC 50.0 μg·mL^−1, three freeze-thaw cycles) was 96.7 ± 8.7%. The “Remaining, Short-term stability” value (kidney homogenate, QC 0.5 μg·mL^−1, 4°C for 4–24 h) was 92.4 ± 4.3%, the “Remaining, Long-term stability” value (kidney homogenate, QC 0.5 μg·mL^−1, 8 weeks at −70°C) was 91.1 ± 5.4% and the “Remaining, Freeze-thaw stability” value (kidney homogenate, QC 0.5 μg·mL^−1, three freeze-thaw cycles) was 92.2 ± 7.5%. The “Remaining, Short-term stability” value (kidney homogenate, QC 5.0 μg·mL^−1, 4°C for 4–24 h) was 95.8 ± 5.6%, the “Remaining, Long-term stability” value (kidney homogenate, QC 5.0 μg·mL^−1, 8 weeks at −70°C) was 94.3 ± 2.8% and the “Remaining, Freeze-thaw stability” value (kidney homogenate, QC 5.0 μg·mL^−1, three freeze-thaw cycles) was 95.4 ± 8.9%. The “Remaining, Short-term stability” value (kidney homogenate, QC 50.0 μg·mL^−1, 4°C for 4–24 h) was 90.8 ± 3.7%, the “Remaining, Long-term stability” value (kidney homogenate, QC 50.0 μg·mL^−1, 8 weeks at −70°C) was 96.8 ± 9.5% and the “Remaining, Freeze-thaw stability” value (kidney homogenate, QC 50.0 μg·mL^−1, three freeze-thaw cycles) was 80.9 ± 6.7%. The “Remaining, Short-term stability” value (liver homogenate, QC 0.5 μg·mL^−1, 4°C for 4–24 h) was 95.1 ± 3.1%, the “Remaining, Long-term stability” value (liver homogenate, QC 0.5 μg·mL^−1, 8 weeks at −70°C) was 92.6 ± 9.1% and the “Remaining, Freeze-thaw stability” value (liver homogenate, QC 0.5 μg·mL^−1, three freeze-thaw cycles) was 98.9 ± 7.9%. For the same compound, the “Remaining, Short-term stability” value (liver homogenate, QC 5.0 μg·mL^−1, 4°C for 4–24 h) was 94.3 ± 6.7%, the “Remaining, Long-term stability” value (liver homogenate, QC 5.0 μg·mL^−1, 8 weeks at −70°C) was 96.6 ± 6.4% and the “Remaining, Freeze-thaw stability” value (liver homogenate, QC 5.0 μg·mL^−1, three freeze-thaw cycles) was 103.8 ± 8.2%. For the same compound, the “Remaining, Short-term stability” value (liver homogenate, QC 50.0 μg·mL^−1, 4°C for 4–24 h) was 95.4 ± 8.6%, the “Remaining, Long-term stability” value (liver homogenate, QC 50.0 μg·mL^−1, 8 weeks at −70°C) was 100.9 ± 5.6% and the “Remaining, Freeze-thaw stability” value (liver homogenate, QC 50.0 μg·mL^−1, three freeze-thaw cycles) was 99.0 ± 5.0%. The “Remaining, Short-term stability” value (lung homogenate, QC 0.5 μg·mL^−1, 4°C for 4–24 h) was 91.2 ± 5.4%, the “Remaining, Long-term stability” value (lung homogenate, QC 0.5 μg·mL^−1, 8 weeks at −70°C) was 97.6 ± 6.8% and the “Remaining, Freeze-thaw stability” value (lung homogenate, QC 0.5 μg·mL^−1, three freeze-thaw cycles) was 95.8 ± 9.8%. For the same compound, the “Remaining, Short-term stability” value (lung homogenate, QC 5.0 μg·mL^−1, 4°C for 4–24 h) was 96.8 ± 8.3%, the “Remaining, Long-term stability” value (lung homogenate, QC 5.0 μg·mL^−1, 8 weeks at −70°C) was 89.8 ± 4.6% and the “Remaining, Freeze-thaw stability” value (lung homogenate, QC 5.0 μg·mL^−1, three freeze-thaw cycles) was 91.9 ± 9.3%. For the same compound, the “Remaining, Short-term stability” value (lung homogenate, QC 50.0 μg·mL^−1, 4°C for 4–24 h) was 95.6 ± 5.9%, the “Remaining, Long-term stability” value (lung homogenate, QC 50.0 μg·mL^−1, 8 weeks at −70°C) was 91.6 ± 9.8% and the “Remaining, Freeze-thaw stability” value (lung homogenate, QC 50.0 μg·mL^−1, three freeze-thaw cycles) was 96.9 ± 7.5%. For the same compound, the “Remaining, Short-term stability” value (plasma, QC 0.5 μg·mL^−1, 4°C for 4–24 h) was 98.0 ± 6.2%, the “Remaining, Long-term stability” value (plasma, QC 0.5 μg·mL^−1, 8 weeks at −70°C) was 100.0 ± 8.7% and the “Remaining, Freeze-thaw stability” value (plasma, QC 0.5 μg·mL^−1, three freeze-thaw cycles) was 90.4 ± 5.9%. For the same compound, the “Remaining, Short-term stability” value (plasma, QC 5.0 μg·mL^−1, 4°C for 4–24 h) was 96.0 ± 8.4%, the “Remaining, Long-term stability” value (plasma, QC 5.0 μg·mL^−1, 8 weeks at −70°C) was 94.0 ± 6.8% and the “Remaining, Freeze-thaw stability” value (plasma, QC 5.0 μg·mL^−1, three freeze-thaw cycles) was 92.8 ± 6.4%. The “Remaining, Short-term stability” value (plasma, QC 35.0 μg·mL^−1, 4°C for 4–24 h) was 99.8 ± 3.3%, the “Remaining, Long-term stability” value (plasma, QC 35.0 μg·mL^−1, 8 weeks at −70°C) was 97.0 ± 5.3% and the “Remaining, Freeze-thaw stability” value (plasma, QC 35.0 μg·mL^−1, three freeze-thaw cycles) was 96.6 ± 5.5%.
In the case of `CC(C)=CCC[C@](C)(O[C@@H]1O[C@H](CO)[C@@H](O)[C@H](O)[C@H]1O)[C@H]1CC[C@]2(C)[C@@H]1[C@H](O)C[C@@H]1[C@@]3(C)CC[C@H](O)C(C)(C)[C@@H]3[C@@H](O[C@@H]3O[C@H](CO)[C@@H](O)[C@H](O)[C@H]3O)C[C@]12C` [GRg1, ginsenoside Rg1], the “Remaining, Short-term stability” value (kidney homogenate, QC 0.4 μg·mL^−1, 4°C for 4–24 h) is reported as 91.5 ± 6.5%, the “Remaining, Long-term stability” value (kidney homogenate, QC 0.4 μg·mL^−1, 8 weeks at −70°C) is reported as 90.8 ± 6.1% and the “Remaining, Freeze-thaw stability” value (kidney homogenate, QC 0.4 μg·mL^−1, three freeze-thaw cycles) is reported as 90.5 ± 7.8%. The “Remaining, Short-term stability” value (kidney homogenate, QC 3.0 μg·mL^−1, 4°C for 4–24 h) was 95.9 ± 4.5%, the “Remaining, Long-term stability” value (kidney homogenate, QC 3.0 μg·mL^−1, 8 weeks at −70°C) was 91.6 ± 11.2% and the “Remaining, Freeze-thaw stability” value (kidney homogenate, QC 3.0 μg·mL^−1, three freeze-thaw cycles) was 94.7 ± 3.7%. The “Remaining, Short-term stability” value (kidney homogenate, QC 40.0 μg·mL^−1, 4°C for 4–24 h) was 102.1 ± 5.7%, the “Remaining, Long-term stability” value (kidney homogenate, QC 40.0 μg·mL^−1, 8 weeks at −70°C) was 95.7 ± 4.6% and the “Remaining, Freeze-thaw stability” value (kidney homogenate, QC 40.0 μg·mL^−1, three freeze-thaw cycles) was 91.2 ± 10.6%.
